Data: patent US5032599A, “N-(pyrrol-l-yl)pyridinamines” (Hoechst-Roussel Pharmaceuticals Inc., priority 1988, dated 1991)
Where a name gives a salt, the structure may show the parent alone.

Tested on: Scopolamine Induced Memory Deficit
Assay: Dark Avoidance Assay (reversal of scopolamine induced memory deficit)
Assay type: in vivo
Details: mice, retest after 24 hours
Protocol: Dark Avoidance Asssay In this assay mice are tested for their ability to remember an unpleasant stimulus for a period of 24 hours. A mouse is placed in a chamber that contains a dark compartment; a strong incandescent light drives it to the dark compartment, where an electric shock is administered through metal plates on the floor. The animal is removed from the testing apparatus and tested again, 24 hours later, for the ability to remember the electric shock. If scolopamine, an anticholinergic that is known to cause memory impairment, is administered before an animal's initial exposure to the test chamber, the animal re-enters the dark compartment shortly after being placed in the test chamber 24 hours later. This effect of scopolamine is blocked by an active test compound, resulting in a greater interval before re-entry into the dark compartment. The results for an active compound are expressed as the percent of a group of animals in which the effect of scopolamine is blocked, as manifested by an increased interval between being placed in the test chamber and re-entering the dark compartment.

SMILES | % of Animals With Scopolamine Induced Memory Deficit Reversed (5.0 mg/kg by body weight) [%] | % of Animals With Scopolamine Induced Memory Deficit Reversed (2.5 mg/kg by body weight) [%] | further results
CC[C@@H]1C(=O)OC[C@@H]1Cc1cncn1C [Pilocarpine, reference compound] | 23 |  | 
CCN(c1ccncc1)n1cccc1Cl.Cl [N-(2-Chloro-1H-pyrrol-1-yl)-N-ethyl-4-pyridinamine hydrochloride] |  | 33 | 
c1ccn(Nc2ccncc2)c1 [N-(1H-Pyrrol-1-yl)-4-pyridinamine] |  |  | % of Animals With Scopolamine Induced Memory Deficit Reversed (0.63 mg/kg by body weight): 21%
CN(c1ccncc1)n1cccc1C=O [1-[N-Methyl-N-(4-pyridinyl)]aminopyrrole-2-carboxaldehyde maleate] |  |  | % of Animals With Scopolamine Induced Memory Deficit Reversed (1.25 mg/kg by body weight): 60%
CC(O)c1cccn1N(C)c1ccncc1 (stereo not drawn) [α-methyl-1-[[N-(4-pyridinyl)-N-methyl]amino]-1H-pyrrole-2-methanol maleate] | 19 |  | 
CN(c1ccncc1)n1cccc1.Cl [N-Methyl-N-(1H-pyrrol-1-yl)-4-pyridinamine hydrochloride] |  | 43 | 
